# Results from patent publication US20240182431A1, “NEW CONTRAST AGENT FOR USE IN MAGNETIC RESONANCE IMAGING” (Bayer Aktiengesellschaft, priority 2021, published 2024).
# Assays:
# [1] = Partition coefficient (logP butanol/buffer); assay type: physicochemical; settings: 1-butanol / 50 mM Tris-HCl, pH 7.4, room temperature
# [2] = Excretion study in rats (5 days) and residual gadolinium organ distribution (7 days); assay type: in vivo, rat; settings: male rats, 0.1 mmol Gd/kg bw i.v.
# Method: The excretion and organ distribution of Example 1 and 15 were determined in male rats (Han-Wistar, n=3). The compound was administered as a sterile aqueous solution (50 mmol Gd/L) as a bolus in the tail vein of the animals. The dose was 0.1 mmol Gd/kg bw.
# Urine was collected in the following time periods 0-1 h, 1-3 h, 3-6 h, 6-24 h, 1-2 d and 2-5 d post injection […] and feces 0-1 d, 1-2 d and 2-5 d post injection. As a control, 3 animals were treated in the same way with RC1. On day 7 the animals were sacrificed, and the following organs were excised: blood, liver, kidney, spleen, heart, lung, brain, muscle, skin, stomach, gut, bone and bone marrow. The remaining carcass was freeze dried and ground to a fine powder. The Gd concentration in the organs and the carcass was determined by ICP-MS (ICP-MS Agilent 7500a, Waldbronn, Germany). The compounds are excreted via dual pathway (liver and kidney). Less than 1% of the administered dose was present in the body 7 days after the injection.
Structure (SMILES),Log P (butanol/buffer) [1],further results
"CCOCCOCCOc1ccc(CCC[C@@H](C(=O)O)N2CCN([C@@H](CO)C(=O)[O-])CCN([C@@H](CO)C(=O)[O-])CCN([C@@H](CO)C(=O)[O-])CC2)cc1.[Gd+3] [Example 15, gadolinium (2S,2′S,2″S)-2,2′,2″-{10-[(1S)-1-carboxy-4-{4-[2-(2-ethoxyethoxy)ethoxy]phenyl}butyl]-1,4,7,10-tetraazacyclododecane-1,4,7-triyl}tris(3-hydroxypropanoate)]",−1.00,Excretion Urine ([2]; 0-1 h post injection): 12.6 ± 11.1% Dose; Excretion Feces ([2]; 0-1 d post injection): 78.6 ± 6.2% Dose; Excretion Urine ([2]; 1-3 h post injection): 17.3 ± 3.4% Dose; Excretion Feces ([2]; 1-2 d post injection): 80.0 ± 5.3% Dose; Excretion Urine ([2]; 1-2 d post injection): 17.7 ± 3.3% Dose; Excretion Feces ([2]; 2-5 d post injection): 80.0 ± 5.3% Dose; Excretion Urine ([2]; 2-5 d post injection): 17.7 ± 3.3% Dose; Excretion Urine ([2]; 3-6 h post injection): 17.4 ± 3.3% Dose; Excretion Urine ([2]; 6-24 h post injection): 17.6 ± 3.3% Dose; Σ organs and carcass ([2]; 7 d post injection): 0.11 ± 0.03% Dose; Total recovery [2]: 97.9 ± 5.4% Dose
"CCOc1ccc(CCCC(C(=O)O)N2CCN(CC(=O)[O-])CCN(CC(=O)[O-])CCN(CC(=O)[O-])CC2)cc1.[Gd+3] (centres unmarked) [Example 28, gadolinium 2,2′,2″-{10-[1-carboxy-4-(4-ethoxyphenyl)butyl]-1,4,7,10-tetraazacyclododecane-1,4,7-triyl}triacetate]",−0.71,–
"CCCC(C(=O)[O-])N1CCN(CC(=O)[O-])CCN(C(Cc2ccc(OCC)cc2)C(=O)O)CCN(CC(=O)[O-])CC1.[Gd+3] (centres unmarked) [Example 29, gadolinium 2-{7-[1-carboxy-2-(4-ethoxyphenyl)ethyl]-4,10-bis(carboxylatomethyl)-1,4,7,10-tetraazacyclododecan-1-yl}pentanoate]",−0.53,–
"CCCC(C(=O)[O-])N1CCN(CC(=O)[O-])CCN(C(Cc2ccc(OCC)cc2)C(=O)O)CCN(CC(=O)[O-])CC1.[Gd+3] (centres unmarked) [Example 30, gadolinium 2-{7-[1-carboxy-2-(4-ethoxyphenyl)ethyl]-4,10-bis(carboxylatomethyl)-1,4,7,10-tetraazacyclododecan-1-yl}pentanoate]",−0.60,–
"CCCCOc1ccc(CCC[C@@H](C(=O)O)N2CCN(CC(=O)[O-])CCN(CC(=O)[O-])CCN(CC(=O)[O-])CC2)cc1.[Gd+3] [Example 31, gadolinium 2,2′,2″-{10-[(1S)-4-(4-butoxyphenyl)-1-carboxybutyl]-1,4,7,10-tetraazacyclododecane-1,4,7-triyl}triacetate]",0.20,–
"CCOCCOc1ccc(CC(C(=O)O)N2CCN(CC(=O)[O-])CCN(CC(=O)[O-])CCN(CC(=O)[O-])CC2)cc1.[Gd+3] (centres unmarked) [Example 32, gadolinium 2,2′,2″-(10-{1-carboxy-2-[4-(2-ethoxyethoxy)phenyl]ethyl}-1,4,7,10-tetraazacyclododecane-1,4,7-triyl)triacetate]",−1.53,–
"CCCCOc1cccc(CCC[C@@H](C(=O)O)N2CCN([C@@H](CO)C(=O)[O-])CCN([C@@H](CO)C(=O)[O-])CCN([C@@H](CO)C(=O)[O-])CC2)c1.[Gd+3] [Example 34, gadolinium (2S,2′S,2″S)-2,2′,2″-{10-[(1S)-4-(3-butoxyphenyl)-1-carboxybutyl]-1,4,7,10-tetraazacyclododecane-1,4,7-triyl}tris(3-hydroxypropanoate)]",0.12,–
"CCOCCOCCOc1ccc(CCC[C@@H](C(=O)O)N2CCN([C@@H](CO)C(=O)[O-])CCN([C@H](CO)C(=O)[O-])CCN([C@@H](CO)C(=O)[O-])CC2)cc1.[Gd+3] [Example 35, gadolinium (2S,2′S)-2,2′-{4-[(1S)-1-carboxy-4-{4-[2-(2-ethoxyethoxy)ethoxy]phenyl}butyl]-10-[(1R)-1-carboxylato-2-hydroxyethyl]-1,4,7,10-tetraazacyclododecane-1,7-diyl}bis(3-hydroxypropanoate)]",−1.02,–
"CCOCCOCCOc1ccc(CC(C(=O)O)N2CCN(C(CCO)C(=O)[O-])CCN(C(CCO)C(=O)[O-])CCN(C(CCO)C(=O)[O-])CC2)cc1.[Gd+3] (centres unmarked) [Example 37, gadolinium-2,2′-{4-[1-carboxy-2-{4-[2-(2-ethoxyethoxy)ethoxy]phenyl}ethyl]-10-[1-carboxylato-3-hydroxypropyl]-1,4,7,10-tetraazacyclododecane-1,7-diyl}bis(4-hydroxybutanoate)]",−1.16,–
"CCOCCOc1ccc(CC(C(=O)O)N2CCN(CC(=O)[O-])CCN(C(COC)C(=O)[O-])CCN(CC(=O)[O-])CC2)cc1.[Gd+3] (centres unmarked) [Example 38, gadolinium 2-[7-{1-carboxy-2-[4-(2-ethoxyethoxy)phenyl]ethyl}-4,10-bis(carboxylatomethyl)-1,4,7,10-tetraazacyclododecan-1-yl]-3-methoxypropanoate]",−1.41,–
"CCOCCOCCOc1cc(CC(C(=O)O)N2CCN(CC(=O)[O-])CCN(CC(=O)[O-])CCN(CC(=O)[O-])CC2)cc(OCCOCCOCC)c1.[Gd+3] (centres unmarked) [Example 39, gadolinium 2,2′,2″-{10-[2-{3,5-bis[2-(2-ethoxyethoxy)ethoxy]phenyl}-1-carboxyethyl]-1,4,7,10-tetraazacyclododecane-1,4,7-triyl}triacetate]",−1.32,–
"CCOCCOCCOCCOc1ccc(C[C@@H](C(=O)O)N2CCN(CC(=O)[O-])CCN(CC(=O)[O-])CCN(CC(=O)[O-])CC2)c(OCCOCCOCCOCC)c1.[Gd+3] [Example 40, gadolinium 2,2′,2″-{10-[(1S)-2-(2,4-bis{2-[2-(2-ethoxyethoxy)ethoxy]ethoxy}phenyl)-1-carboxyethyl]-1,4,7,10-tetraazacyclododecane-1,4,7-triyl}triacetate]",−1.43,–
"CCOCCOCCOc1ccc(CC(C(=O)O)N2CCN(CC(=O)[O-])CCN(C(CO)C(=O)[O-])CCN(CC(=O)[O-])CC2)cc1.[Gd+3] (centres unmarked) [Example 41, gadolinium-2-{7-[1-carboxy-2-{4-[2-(2-ethoxyethoxy)ethoxy]phenyl}ethyl]-4,10-bis(carboxylatomethyl)-1,4,7,10-tetraazacyclododecan-1-yl}-3-hydroxypropanoate]",−1.61,–
"CCOCCOCCOCCOc1ccc(CC(C(=O)O)N2CCN(CC(=O)[O-])CCN(C(CO)C(=O)[O-])CCN(CC(=O)[O-])CC2)cc1.[Gd+3] (centres unmarked) [Example 42, gadolinium-2-{7-[1-carboxy-2-(4-{2-[2-(2-ethoxyethoxy)ethoxy]ethoxy}phenyl)ethyl]-4,10-bis(carboxylatomethyl)-1,4,7,10-tetraazacyclododecan-1-yl}-3-hydroxypropanoate]",−1.60,–
"CCOCCOCCOc1ccc(CC(C(=O)[O-])N2CCN(CC(=O)[O-])CCN(C(CC)C(=O)O)CCN(CC(=O)[O-])CC2)cc1.[Gd+3] (centres unmarked) [Example 43, gadolinium-2-{4,10-bis(carboxylatomethyl)-7-[1-carboxypropyl]-1,4,7,10-tetraazacyclododecan-1-yl}-3-{4-[2-(2-ethoxyethoxy)ethoxy]phenyl}propanoate]",−1.19,–
"COCC(C(=O)O)N1CCN(CC(=O)[O-])CCN(C(Cc2ccc(OCC(F)(F)C(F)F)cc2)C(=O)[O-])CCN(CC(=O)[O-])CC1.[Gd+3] (centres unmarked) [Example 45, gadolinium-2-{4,10-bis(carboxylatomethyl)-7-[1-carboxy-2-methoxyethyl]-1,4,7,10-tetraazacyclododecan-1-yl}-3-[4-(2,2,3,3-tetrafluoropropoxy)phenyl]propanoate]",−0.36,–
"O=C([O-])CN1CCN(CC(=O)[O-])CCN(C(Cc2ccc(OCC(F)(F)C(F)F)cc2)C(=O)O)CCN(CC(=O)[O-])CC1.[Gd+3] (centres unmarked) [Example 46, gadolinium 2,2′,2″-(10-{1-carboxy-2-[4-(2,2,3,3-tetrafluoropropoxy)phenyl]ethyl}-1,4,7,10-tetraazacyclododecane-1,4,7-triyl)triacetate]",−0.57,–
"O=C([O-])CN1CCN(CC(=O)[O-])CCN([C@H](Cc2ccc(OCC(F)(F)F)cc2)C(=O)O)CCN(CC(=O)[O-])CC1.[Gd+3] [Example 47, gadolinium 2,2′,2″-(10-{(1R)-1-carboxy-2-[4-(2,2,2-trifluoroethoxy)phenyl]ethyl}-1,4,7,10-tetraazacyclododecane-1,4,7-triyl)triacetate]",−0.77,–
